Some test systems named below: EKVX; LOX IMVI; 786-0; SK-MEL-2; T47D; SK-OV-3; Malme-3M; OVCAR-3; ACHN; UACC-257; COLO 205; OVCAR-4; BT-549; HCT-116; UO-31; CAKI-1; SN12C; SNB-75; NCI-H23; SR.
What all share (assay): NCI-60 cell line screen, 48 h

The values that follow come from ChEMBL document CHEMBL1201862, “PubChem BioAssay data set” (2004).

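48-hour exposure; five concentrations; linearly interpolated endpoints. GI50 = concentration required for 50% inhibition of growth.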 The source made the active and inactive calls. Cut-off read from the data, not from the text of the source: active = GI50 up to about 1.1 µM and inactive = higher.

Consider `Nc1cc(O)c2c(c1O)C(=O)C=CC2=O`, for which the GI50 was 17.9 µM (inactive) with EKVX; 5.58 µM (inactive) in the assay with LOX IMVI; 7.89 µM (inactive) in the assay on 786-0; 14 µM (inactive) in the assay on SK-MEL-2; 13.2 µM (inactive) in the assay with T47D; 47 µM (inactive) in the assay with SK-OV-3. In addition, the GI50 with Malme-3M was 2.67 µM (inactive); with OVCAR-3, 2.64 µM (inactive); in the assay with ACHN it was 12.3 µM (inactive); in the assay with UACC-257, 14.5 µM (inactive); in the assay on COLO 205, 6.62 µM (inactive); in the assay with OVCAR-4 it was 10.8 µM (inactive). Further, the GI50 with BT-549 was 16.7 µM (inactive); in the assay with HCT-116, 5.19 µM (inactive); in the assay with UO-31 it was 10.9 µM (inactive); with CAKI-1, 18.6 µM (inactive); in the assay with SN12C, 16.1 µM (inactive); with SNB-75, 30.7 µM (inactive). Also, the GI50 with NCI-H23 was 8.99 µM (inactive).

For `CC(=O)Nc1ncc(Sc2ccccc2C(=O)O)s1`, the GI50 in the assay on EKVX, with LOX IMVI, in the assay on 786-0, with SK-MEL-2, in the assay with T47D and in the assay with OVCAR-3 was > 100 µM (inactive) throughout. Moreover, the GI50 in the assay on ACHN, with UACC-257, with COLO 205, in the assay with BT-549, in the assay on HCT-116 and in the assay with UO-31 was > 100 µM (inactive) each time. The GI50 with SR, with CAKI-1, in the assay with SN12C, in the assay with SNB-75 and in the assay on NCI-H23 was > 100 µM (inactive) in each case.

Regarding `O=c1cccc(C2CC(CO)C3CCCCN3C2)[nH]1` (stereo not given), the GI50 in the assay on EKVX, in the assay on LOX IMVI, with 786-0, in the assay on SK-MEL-2, in the assay with T47D and with SK-OV-3 was > 100 µM (inactive) in each case. For the same compound, the GI50 in the assay with OVCAR-3, with ACHN, in the assay with UACC-257, in the assay on COLO 205, in the assay with OVCAR-4 and in the assay on BT-549 was > 100 µM (inactive) in each case. Also, the GI50 with HCT-116 is > 100 µM (inactive); with UO-31, > 100 µM (inactive); in the assay on CAKI-1 it was > 100 µM (inactive); in the assay with SN12C, > 100 µM (inactive); with SNB-75, 86.9 µM (inactive); with NCI-H23 it was > 100 µM (inactive).

`N#CSCc1cccc(Nc2cc(=O)[nH]c(=O)[nH]2)c1`: the GI50 with EKVX was > 100 µM (inactive); in the assay on LOX IMVI it was 92.3 µM (inactive); with 786-0, > 100 µM (inactive); in the assay on SK-MEL-2, > 100 µM (inactive); in the assay with T47D, > 100 µM (inactive); in the assay on SK-OV-3, > 100 µM (inactive). Moreover, the GI50 in the assay on Malme-3M was 31.8 µM (inactive); in the assay with OVCAR-3, 54.7 µM (inactive); with ACHN, > 100 µM (inactive); in the assay with UACC-257 it was 85.1 µM (inactive); in the assay with COLO 205, 37.2 µM (inactive); in the assay with OVCAR-4, 31.3 µM (inactive). For the same compound, the GI50 is 38 µM (inactive) with BT-549; 40.6 µM (inactive) in the assay with HCT-116; > 100 µM (inactive) in the assay with UO-31; > 100 µM (inactive) with CAKI-1; > 100 µM (inactive) in the assay with SN12C; > 100 µM (inactive) with SNB-75. In the assay on NCI-H23, the GI50 is > 100 µM (inactive).

Consider `CCOC(=O)CNC(=O)CNC(=O)CNC(=O)CNNc1c(OCc2ccccc2)c(=O)c1=O`, for which the GI50 in the assay with EKVX, in the assay with 786-0, in the assay on SK-MEL-2, with T47D, with SK-OV-3 and in the assay on Malme-3M was > 100 µM (inactive) each time. For the same compound, the GI50 in the assay on OVCAR-3, with ACHN, with UACC-257, in the assay with COLO 205, with OVCAR-4 and in the assay with BT-549 was > 100 µM (inactive) in each case. Moreover, the GI50 in the assay on HCT-116, with UO-31, in the assay on CAKI-1, with SN12C, in the assay on SNB-75 and with NCI-H23 was > 100 µM (inactive) in each case.

In the case of `N#Cc1nn(C(N)=O)c(N)c1C#N`, the GI50 with EKVX, with 786-0, in the assay with SK-MEL-2, with T47D, in the assay on SK-OV-3 and in the assay with OVCAR-3 was > 100 µM (inactive) throughout. For the same compound, the GI50 in the assay on ACHN, in the assay on UACC-257, with COLO 205, in the assay on OVCAR-4, in the assay with BT-549 and in the assay on HCT-116 was > 100 µM (inactive) throughout. The GI50 in the assay with UO-31, in the assay with SR, with CAKI-1, in the assay with SN12C, with SNB-75 and in the assay with NCI-H23 was > 100 µM (inactive) throughout.

For `CCOC(=O)/C(C(=O)Nc1cccc(C(F)(F)F)c1)=C(/N)N1CCOCC1`, the GI50 with EKVX, in the assay with LOX IMVI, with 786-0, with SK-MEL-2, with T47D and in the assay with SK-OV-3 was > 100 µM (inactive) each time. The GI50 in the assay with Malme-3M, in the assay on OVCAR-3, with ACHN, in the assay with UACC-257, in the assay with COLO 205 and in the assay with OVCAR-4 was > 100 µM (inactive) throughout. For the same compound, the GI50 in the assay with BT-549, in the assay with HCT-116, in the assay with CAKI-1, with SN12C, in the assay on SNB-75 and in the assay with NCI-H23 was > 100 µM (inactive) throughout.

Regarding `CCOc1cc(C=O)c2c(ccc3ccc(OC)c(OC)c32)c1OC`, the GI50 in the assay on EKVX was 7.1 µM (inactive); with LOX IMVI, 32.4 µM (inactive); in the assay on 786-0, > 100 µM (inactive); in the assay with SK-MEL-2, 36.8 µM (inactive); in the assay with T47D, 35.7 µM (inactive); in the assay on SK-OV-3, > 100 µM (inactive). Further, the GI50 with Malme-3M is 55.7 µM (inactive); with OVCAR-3 it was 31.6 µM (inactive); with ACHN, 44 µM (inactive); in the assay on UACC-257, 59.3 µM (inactive); with COLO 205, 32.5 µM (inactive); in the assay on OVCAR-4 it was 51.1 µM (inactive). The GI50 was 32.4 µM (inactive) in the assay with BT-549; 36 µM (inactive) with HCT-116; 66.8 µM (inactive) in the assay on UO-31; 93.5 µM (inactive) in the assay with CAKI-1; 70.6 µM (inactive) with SN12C; 36.3 µM (inactive) in the assay on SNB-75. In the assay on NCI-H23, the GI50 was 64 µM (inactive).

`CN(CCc1ccc(Br)cc1)CCN1CCCCC1`: the GI50 is > 100 µM (inactive) in the assay with EKVX; 28.6 µM (inactive) with LOX IMVI; 30.1 µM (inactive) in the assay on 786-0; 24.4 µM (inactive) in the assay on SK-MEL-2; 39.7 µM (inactive) in the assay with T47D; 55.8 µM (inactive) in the assay on SK-OV-3. Further, the GI50 is 22.8 µM (inactive) in the assay on Malme-3M; 36.6 µM (inactive) in the assay on OVCAR-3; 62.5 µM (inactive) with ACHN; 36.3 µM (inactive) in the assay with UACC-257; 16.3 µM (inactive) in the assay with COLO 205; 54.8 µM (inactive) in the assay with OVCAR-4. Besides, the GI50 in the assay with BT-549 was 24.8 µM (inactive); in the assay on HCT-116, 17.7 µM (inactive); in the assay with UO-31, 36.1 µM (inactive); with CAKI-1, 43.2 µM (inactive); with SN12C, 81.1 µM (inactive); in the assay on SNB-75, 22.3 µM (inactive). The GI50 in the assay on NCI-H23 is 31.9 µM (inactive).

In the case of `CC(C)(O)[C@@H]1CC[C@](C)(C2[C@@H](O)C[C@@]3(C)C4C[C@H](OC5OCC(O)C(O)C5O)[C@H]5C(C)(C)[C@@H](OC6OCC(O)C(O)C6OC6OCC(O)C(O)C6O)CC[C@@]56C[C@@]46CC[C@]23C)O1` (stereo not given in full), the GI50 in the assay on EKVX, in the assay with 786-0, in the assay on SK-MEL-2, in the assay on T47D, in the assay on SK-OV-3 and in the assay with OVCAR-3 was > 100 µM (inactive) in each case. In addition, the GI50 with COLO 205, in the assay on OVCAR-4, in the assay on BT-549, with HCT-116, in the assay on UO-31 and in the assay on SR was > 100 µM (inactive) each time. The GI50 with CAKI-1, in the assay on SN12C, in the assay on SNB-75 and in the assay on NCI-H23 was > 100 µM (inactive) in each case.

In the case of `CC[C@H]1CN2CCc3cc(OC)c(OC)cc3[C@@H]2C[C@@H]1C[C@H]1NCCc2c1[nH]c1ccc(O)cc21` [TUBULOSINE], the GI50 was 0.0294 µM (active) in the assay with EKVX; < 0.01 µM (active) with LOX IMVI; < 0.01 µM (active) in the assay with 786-0; 0.0137 µM (active) with SK-MEL-2; < 0.0106 µM (active) in the assay on T47D; 0.0222 µM (active) with SK-OV-3. Also, the GI50 with Malme-3M is 0.0421 µM (active); in the assay on OVCAR-3 it was 0.0276 µM (active); with ACHN, 0.0396 µM (active); in the assay on UACC-257, 0.0582 µM (active); in the assay on COLO 205 it was < 0.01 µM (active); in the assay with OVCAR-4 it was < 0.01 µM (active). The GI50 is 0.191 µM (active) in the assay with BT-549; 0.0102 µM (active) in the assay with HCT-116; 0.326 µM (active) with UO-31; < 0.215 µM (active) with SR; < 0.01 µM (active) in the assay with SN12C; < 0.01 µM (active) with SNB-75. Besides, the GI50 with NCI-H23 is < 0.0113 µM (active).
